Tested on: human hair follicles
Assay: Human hair follicle organ culture, hair follicle length growth evaluation 1
Type: cell-based
Details: for 6 days; exosomes 1.0×10^9 particles, minoxidil 1 μM
Method: In order to evaluate effects of the exosomes of the present invention on human hair follicle growth, a human hair follicle organ culture test (ex vivo hair follicle organ culture) was conducted. More specifically, scalp tissues were isolated into the unit of hair follicles, and the remaining hair follicles were used after cutting the part below the sebaceous gland of the isolated hair follicles. The prepared hair follicles were treated with Examples 1 and 2, and minoxidil as a positive control, respectively, and lengths of the hair growing on the 3rd and 6th days were measured, followed by comparing the measured results to the negative control in order to evaluate a length growth and a growth cycle of human hair follicles. […] The lengths of the hair follicles grown on the 3rd and 6th days of the culture, respectively, were measured using a microscope ruler.

With `Nc1cc(N2CCCCC2)nc(N)[n+]1[O-]` [minoxidil] the “growth of hair (hair follicle length)” value was “about 1.5 mm”.

From patent publication US20230218675A1, “EXOSOMES ISOLATED FROM DERMAL PAPILLA PROGENITOR CELLS, AND USE THEREOF” (CELLPARK GLOBAL, priority 2020, published 2023)
